Measurements as given in US20220370636A1, “NICOTINAMIDE ADENINE DINUCLEOTIDE ACTIVATOR AND USE THEREOF” (University of South Florida, priority 2021, published 2022).
Each block holds one compound with its values, some of them ahead of it.

Legend:
[1] = tested on: C57Bl/6J mice on a high-fat diet; conditions: cited from earlier work
PI3K = test: Ex vivo ischemia reperfusion with PI3K inhibitor LY294002, pAKT Western blot; design: species or system mice; conditions: WT hearts; LY294002 15 μM prior to global ischemia
recombinant Nampt = recombinant Nampt (Homo sapiens, UniProt P43490); test: Recombinant Nampt enzymatic activity assay; conditions: enzyme assay with recombinant Nampt
Chain of recombinant Nampt (P43490 whole entry): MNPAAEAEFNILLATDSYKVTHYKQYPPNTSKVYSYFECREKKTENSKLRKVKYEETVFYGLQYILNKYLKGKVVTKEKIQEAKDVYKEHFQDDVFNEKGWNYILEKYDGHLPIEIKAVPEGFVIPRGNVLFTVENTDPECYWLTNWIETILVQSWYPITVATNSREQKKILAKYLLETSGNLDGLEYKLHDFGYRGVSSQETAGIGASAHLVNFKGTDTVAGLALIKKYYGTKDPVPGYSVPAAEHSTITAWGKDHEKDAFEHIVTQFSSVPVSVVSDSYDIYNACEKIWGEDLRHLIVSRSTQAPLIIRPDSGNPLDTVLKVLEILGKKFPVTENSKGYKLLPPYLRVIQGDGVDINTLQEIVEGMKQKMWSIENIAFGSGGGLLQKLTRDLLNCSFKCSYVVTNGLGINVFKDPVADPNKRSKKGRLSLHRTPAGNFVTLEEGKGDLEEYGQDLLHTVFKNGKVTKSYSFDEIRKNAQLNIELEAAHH

SMILES: COc1cccc(NCC(F)Cn2c3ccc(Br)cc3c3cc(Br)ccc32)c1 (stereo not drawn) [P7C3 A20]
- fatty liver syndrome [1]: rescued

SMILES: Cl.O=c1cc(N2CCOCC2)oc2c(-c3ccccc3)cccc12 [LY294002, 2-(4-Morpholinyl)-8-phenyl-1(4H)-benzopyran−4-one hydrochloride]
- P7C3 based pAkt expression (PI3K): attenuated

- Nampt activity (recombinant Nampt): significantly decreased
SMILES: O=C(/C=C/c1cccnc1)NCCCCC1CCN(C(=O)c2ccccc2)CC1 [FK866]
